Results taken from US20190183939A1, “CELL THERAPY USING MIDBRAIN-TYPE NEURAL STEM CELLS TREATED WITH VITAMIN C” (INDUSTRY-UNIVERSITY COOPERATION FOUNDATION HANYANG …, priority 2017, published 2019).

Columns and labels:
VM-NSCs = test: Cell growth curves and population doubling level during NSC expansion; type: cell-based, rat; conditions: up to P1
Procedure: (§1) The cell growth profile during NSC expansion with several cell passages was generated by counting the number of viable cells at the end of each passage. Cell expansion of each NSC passage was further estimated by the population doubling level (PDL, the level at which the number of cells is doubled), which was determined by log(N/NO)/log 2 (where N is the number of cells at the end of each passage; NO is the number of cells plated initially (1×10^5 cells/cm^2)). DA neuronal cell survival in the absence or presence of toxic insults (500-1000 uM of H2O2 or 6-OHDA) was determined by counting viable TH^+ cells after staining. General cell death and DNA damage were estimated by ethidium heterodimer 1 (EthD1) (Molecular Probes) and γH2AX staining, respectively.

Nurr1 and TH promoters = test: DIP-qPCR and ChIP-qPCR on Nurr1 and TH promoters; type: cell-based, rat
Source text: (§2) Foxa2 and Nurr1 binding sites were identified using the Jaspar database (http://jaspar.genereg.net/) using an 80% score threshold. Predicted Foxa2 and Nurr1 binding sites were coupled with phylogenetic footprinting to eliminate spurious predictions with specified position weight matrix (PWM) settings, as described in the following reference. [Sandelin, A., and Wasserman, W. W. (2004). Constrained binding site diversity within families of transcription factors enhances pattern discovery bioinformatics. Journal of molecular biology 338, 207-215] (Table 2). ChIP and DIP assays were carried out as described in the following reference. [Prolonged membrane depolarization enhances midbrain dopamine neuron differentiation via epigenetic histone modifications. Stem Cells 29, 1861-1873]. Briefly, chromatin or genomic DNA was sheared to an average of 200-500 bp in length using a sonication Bioruptor (BMS, Seoul, Korea) and immunoprecipitated using the antibodies listed in Table 1. Immunoprecipitated DNA fragments were collected using magnetic beads (Invitrogen), purified, and subjected to real-time PCR using the primers listed in Table 3. The comparative cycle threshold method was used to quantify the results. Data were normalized to the input DNA.

[1] = test system: TH+ DA neurons differentiated from VM-NSCs; test: Co-expression of midbrain-specific markers in differentiated TH+ DA neurons; type: cell-based, rat; conditions: P1 cultures treated with VC during expansion, D6
Procedure: Cultured cells and cryosectioned brain slices were fixed with 4% paraformaldehyde (PFA), and blocked for 40 minutes in blocking solution (Blocking solution: 1% BSA+0.3% Triton X-100). For 5hmC and 5mC staining, the fixed cells were incubated with 2 N HCl for 20 minutes before the blocking reaction. The samples were incubated overnight at 4° C. in the blocking solution containing the primary antibodies listed in Supplemental Table 1. Secondary antibodies tagged with Alexa 488 (1:200, Invitrogen, Carlsbad, Calif.) and Cy3 (1:200, Jackson Immunoresearch Laboratories, West Grove, Pa.) were applied. Stained samples were mounted in Vectashield medium containing 40,6-diamidino-2-phenylindole (DAPI; Vector Laboratories, West Grove, Pa.) and analysed under an epifluorescence (Leica, Wetzlar, Germany) or confocal microscope (Leica TSP SP5).
Immunostained cells were counted in 10-20 random areas of each culture coverslip using an eyepiece grid at a magnification of 200×. Data are expressed as the mean±SEM of three to eight independent cultures. For every figure, statistical tests are justified as appropriate. Statistical comparisons were made using Student's t-test (unpaired) or one-way ANOVA followed by Tukey's post hoc analysis using SPSS® Statistics 21; IBM Inc. The relevant n, P-values, and statistical analysis methods are indicated in each figure legend.

[2] = test system: human TH promoter regions; test: DIP-qPCR/ChIP-qPCR on human TH promoter; type: cell-based
Source text: as §2

[3] = test system: TH+ DA neurons differentiated from VM-NSCs; test: Morphologic and functional maturation of DA neurons; type: cell-based, rat; conditions: VC during expansion
Procedure: To estimate morphological maturation, total fiber lengths emanating from TH+DA neuronal cells were measured. The pre-synaptic activity of DA neurons was determined by measuring the levels of DA neurotransmitter released in the differentiated VM-NSC cultures. Media incubated for 2 days (differentiation day 13-15) were collected and used in the DA level determinations using an ELISA kit (BA E-5300, LDN). In addition, DA release evoked by membrane depolarization was estimated by incubating the cultures (at differentiation day 15) in fresh N2 media in the presence or absence of 56 mM KCl for 30 min. The evoked DA release was calculated by subtracting the DA release without KCl from the DA level with KCl.

[4] = test system: human NSCs derived from hESCs (H9); test: VC treatment in human NSC cultures derived from hESCs (H9); type: cell-based
Procedure: NSCs were cultured from rat embryo VMs (Sprague Dawley) at embryonic day 12 (E12) on 6-cm dishes or 24-well plates pre-coated with 15 μg/ml poly-L-ornithine (PLO; Sigma)/1 ug/ml fibronectin (FN; Sigma, St. Louis, Mo.) in serum-free N2 medium. NSCs were induced to proliferate by the mitogenic action of basic fibroblast growth factor (bFGF, 20 ng/ml, R&D Systems, Minneapolis, Minn.). The proliferating VM-NSCs cultured in 6-cm dishes were passaged at every 4th day in mitogen-supplemented medium with or without Vitamin C (VC; Sigma; 200 μM), glutathione reduced form (GSH; Sigma; 200 μM), vitamin E (alpha-tocopherol; Sigma; 200 μM), or N-acetylcysteine (NAc; Sigma; 100 μM). The expanded NSCs at the last day of each passage were induced to differentiate by withdrawing the mitogen and antioxidants from the media (for 2-16 days). Human NSC cultures were derived by in vitro differentiation of hESCs (H9) and cultured as described in the following reference. [Rhee, Y. H., Ko, J. Y., Chang, M. Y., Yi, S. H., Kim, D., Kim, C. […] The human NSCs were expanded in ITS media supplemented with bFGF (20 ng/ml) in the presence or absence of VC for two NSC passages. Differentiation of the passaged human NSCs was induced by withdrawal of bFGF and VC in ITS supplemented with brain-derived neurotrophic factor (20 ng/ml; R&D Systems), glial cell line derived neurotrophic factor (20 ng/ml; R&D Systems), and dibutyryl cAMP (0.5 mmol/1; Sigma). Cultures were maintained at 37° C. in humidified 5% CO2 incubators.
as §1
To estimate morphological maturation, total fiber lengths emanating from TH+DA neuronal cells were measured. The pre-synaptic activity of DA neurons was determined by measuring the levels of DA neurotransmitter released in the differentiated VM-NSC cultures. Media incubated for 2 days (differentiation day 13-15) were collected and used in the DA level determinations using an ELISA kit (BA E-5300, LDN). […] The evoked DA release was calculated by subtracting the DA release without KCl from the DA level with KCl.

## O=C1O[C@H]([C@@H](O)CO)C(O)=C1O [VC, L-ascorbic acid]
VM-NSCs
  VM-NSC survival and proliferation: none of the anti-oxidant treatments tested, including VC, significantly altered
Nurr1 and TH promoters; ChIP-qPCR, D6
  Nurr1 protein abundance at TH promoter: significantly greater
Nurr1 and TH promoters; D2, culture pre-treated with VC
  Foxa2 recruitment to Nurr1 promoter regions: more abundantly recruited
Nurr1 and TH promoters; from D0, compared to untreated controls
  5hmC/5mC and H3K27m3/H3K9m3 at Nurr1 promoter regions: increased 5hmC levels with 5mC decreases and the decrease of H3K27m3/H3K9m3
[1]
  TH+ DA neurons expressing Foxa2: 98%
  TH+ DA neurons expressing Lmx1a: 91%
  TH+ DA neurons expressing Nurr1: 93%
[2]
  H3K9m3/H3K27m3 levels in human TH promoter regions: undetectable
[2]; two consensus Nurr1 binding sites, D6
  levels of 5hmC at human TH promoter regions: enhanced
[3]; D15
  total fiber lengths per TH+ DA neuron: 164 um
[3]; medium 48 hr (D13-15) and KCl evoked 30 min
  presynaptic DA neuronal function measured by DA release: greater
[3]; vs untreated control
  synapsin+ puncta in TH+ DA neuron neurites: more abundantly localized
[4]; VC-treated human NSCs, D6
  TH+ DA neuronal yields: significantly enhanced
[4]; compared to untreated control cultures, D15
  neurite branching of TH+ cells: more extensive neurite branching
[4]; hESC-NSC cultures, VC during proliferation, D6
  differentiating/differentiated cell survival: greatly promoted
[4]; qRT-PCR
  TH mRNA expression: increase
